Reference: patent publication US6248718A, “Lesion-directed dry dosage forms of antibacterial agents for the treatment of acute mucosal infections of the oral cavity” (priority 1999, dated 2001)
“And” between values parts separate entries of the source, which are not always exact repeats. Identical values can stand only once. “Also recorded” adds a separate entry of the source.

Tests used:
[1] = tested on: bacteria in saliva in the vicinity of the canker ulcer; assay: Bacterial inhibition in saliva of canker sore patients in vivo (Example VI)
Experimental: (§1) Six (6) adult, otherwise healthy patients suffering from recurrent minor canker sores were selected for this study from July 10 to Nov. 12, 1998. The drug substance used for this study was crystalline penicillin G potassium salt, U.S.P. grade, purchased from Sigma Chemical Co., St. Louis, Mo. 63178 (Lot No. 57H1195).
(§2) On the first or the second day after the patients noticed the formation of the canker ulcers, 50 mg of penicillin G potassium was administered topically with a spatula or the handle of a teaspoon as dry powder directly over the canker ulcers, four times a day, i.e. after breakfast, after lunch, after supper and before bed time. The patients were advised to retain the antibiotic powder and its concentrated solution in a small pocket of saliva at the site of the ulcer and to avoid its excessive dilution by saliva from other parts of the oral cavity for one hour after each application of the antibiotic powder. No food or drink was allowed during this one-hour period.
Samples of 0.1 ml of saliva at the site in the vicinity of the canker ulcer were pipetted from the mouth immediately before instituting the first penicillin G potassium application and about 60-70 minutes after the first antibiotic application. Each sample was spread on the surface of a 10-cm blood agar Petri dish with a sterile plastic loop. The inoculated plates were incubated aerobically at 37° C. for 18 hours as described above. The total numbers of bacterial colonies on each plate were estimated. The dominating species of the microorganisms were identified according to the approved protocols routinely used in a clinical microbiology laboratory. The results are tabulated as follows
(§3) On day 2, about 48 hours after the medication was initiated, the patients collected an early morning sample of saliva immediately after getting up and submitted it to the laboratory for culture. While in the laboratory, a second sample of the residual exudate covering the ulcer was taken from the patient for a post-treatment follow-up microscopy after Congo red negative staining.
On day 6, i.e. two days after the last dose of medication, the patients were instructed to collect a sample of saliva in a sterile test tube upon waking up in the morning before brushing their teeth. The saliva was brought to the laboratory. Aliquot of 0.1 ml of each saliva sample was pipetted and inoculated on the surface of a blood agar plate and incubated aerobically as described previously. After 18 hours of incubation, there were more 3,000 colonies growing on each blood agar plate. The overwhelming majority of the colonies were those of Neisseriae and non-β-hemolytic streptococci, similar to those observed in FIG. 1.

[2] = tested on: microbes in the exudate covering the canker ulcer; assay: Congo red negative stain microscopy of canker ulcer exudate (Example VI); assay type: in vivo, human oral flora; details: penicillin G potassium 50 mg four times a day, about 48 hours
Experimental: Before the initiation of treatment, a small amount of exudate was scraped off the grayish-white covering of the ulcer with a toothpick and mixed with a drop of aqueous solution of Congo red for a negative stain smear. After the dried smear was exposed to concentrated hydrochloric acid vapor, the negative-stained microorganisms were examined microscopically.
as §3

[3] = Healing of canker sores in patients (Example VI); assay type: in vivo, human; details: 50 mg four times a day, four days course, six patients
Experimental: as §1, §2

[4] = Concentrations of penicillin G potassium in saliva after oral ingestion (Example VIII); assay type: in vivo, human; details: for concentration in human saliva: 30-min intervals to 3 hours
Experimental: Eight healthy adults, four men and four women, volunteered for this study. Two men and two women were given 500 mg each, and two men and two women were given 250 mg of USP grade penicillin G potassium powder each by mouth, respectively. These two doses were chosen for the study because they have been used as the standard adult oral doses for systemic treatment of human bacterial infections.
In this study, the drug powder was suspended in one teaspoonful of water and swallowed by the test subjects two hours after breakfast, followed by drinking an 8 Oz. glass of water. The test subjects refrained from drinking or eating for the next three hours. Six samples of saliva were collected from each subject at 30-minute intervals in succession in the next three hours. An aliquot of 0.2 ml from each saliva sample was transferred to 3.8 ml of nutrient broth. The mixture of the latter was forced to pass a bacterial filter. Two (2) ml of the bacteria-free filtrate was pipetted out into a sterile test tube and inoculated with 0.1 ml of a 1:1,000 dilution of a 12 hours broth culture of Staphylococcus aureus ATCC 29213 and incubated at 37° C. for 18 hours. A series of test tubes containing known concentrations, from 6.2 mcg/ml to 0.16 mcg/ml, of penicillin G potassium in 2 ml of nutrient broth was also inoculated with the same broth culture as standards.
Since 0.75 mcg/ml is the consistent MIC observed in this laboratory for Staphylococcus aureus ATCC 29213, the penicillin concentration in the saliva-broth filtrate must have been at a level below 0.75 mcg/ml.

[5] = Local concentrations of penicillin in saliva after penicillin G potassium 50 mg tablet (Example IX); assay type: in vivo, human
Experimental: Five healthy adult volunteers, three men and two women, were selected for this study.
On the day of study, two hours after breakfast, the volunteers were given a single tablet of the drug, placed in the right oral sulcus between the lower gum and the buccal mucosa to be dissolved in a minimum amount of saliva in about six (6) minutes. This loculated pocket of saliva was not to be swallowed and was not to be further diluted by saliva from other parts of the mouth for one hour. At 6 minutes, 20 minutes, 40 minutes and 60 minutes after drug application, an aliquot of 0.01 ml was aspirated from this pocket of saliva and added into a test tube containing 10 ml of nutrient broth to give a 1,000 times dilution. After being mixed well, aliquots of the mixtures of saliva sample and nutrient broth were forced to pass through bacterial filters into sterile test tubes. Thcn 0.8 ml of each 1:1,000 diluted filtrate was pipetted and added to 3.2 ml of nutrient broth to make an additional 5 times dilution in a volume of 4 ml. Two ml was pipetted from the latter to make a serial double dilution of saliva sample in 2 ml of nutrient broth, as described above under a, in 12 test tubes. The dilution factor for the saliva sample in test No. 1 was 5,000 and […] progressively to 1:10,240,000 in test tube No.12.
Each filtered mixture in test tube was inoculated with 0.1 ml of a 1:1,000 dilution of a 12 hour broth culture of Staphyloccus aureus ATCC 29213.
A row of 6 test tubes each containing 2 ml of nutrient broth with decreasing concentrations of penicillin G potassium, USP Reference Standard 502508, at 6.2, 3.1, 1.5, 0.75, 0.32, and 0.16 mcg/ml, using a serial double dilution method described in a., was prepared and similarly inoculated with 0.1 ml broth culture of Staphyloccus aureus ATCC 29213 as the standard.
All test tubes were incubated at 37° C. for 18 hours and observed for bacterial growth against an inoculated broth containing neither antibiotic nor saliva samples.
The test tube of highest number with the highest dilution factor of saliva in nutrient broth in which no bacterial growth was observed was interpreted as containing an equivalent of penicillin G potassium at 0.75 mcg/ml. Using the dilution factors, it was calculated that, after topical application of the drug product, the concentrations of penicillin G potassium in the saliva at the site of medication within the first hour were as follows.

CC1(C)S[C@@H]2[C@H](NC(=O)Cc3ccccc3)C(=O)N2[C@H]1C(=O)O [penicillin G potassium]
duration of inhibitory effect on oral flora ([1]; 50 mg): not long-lasting | alteration of normal oral flora ([1]; 50 mg four times a day, intermittent): not permanently altered; also recorded: did not seem to alter the dominant microbial components of the normal flora | Colonies after Treatment ([1]; 50 mg powder, about 60-70 minutes, 0.1 ml saliva, per patient, Y = yeast): 0 and 2 and Two | inhibition of bacteria in saliva covering the ulcer ([1]; 50 mg powder, about one hour): totally destroyed or inhibited; also recorded: intermittent total inhibition of bacterial growth in the saliva | bacterial colonies in early morning saliva ([1]; day 2, about 48 hours after start of medication, 0.1 ml): more than 3,000 bacterial colonies | bacterial colonies in morning saliva ([1]; day 6, two days after last dose, 0.1 ml): > 3,000 colonies | microbes in exudate after topical treatment [2]: Only very rare cocci were found; also recorded: practically eliminated | healing of canker sores [3]: healed completely | concentration in human saliva ([4]; oral ingestion of 250 mg): < 15 µg/mL | concentration in human saliva ([4]; oral ingestion of 500 mg): < 15 µg/mL | bacterial growth in saliva-broth filtrate ([4]; oral ingestion of 250 or 500 mg, S. aureus ATCC 29213, 48 tubes): vigorous bacterial growth | concentration at 0.1 h ([5]; human, saliva, topical or ocular, 50 mg tablet, 6 min): 240000 to 480000 µg/mL | concentration at 20 min ([5]; human, saliva, topical or ocular, 50 mg tablet, 20 min): 120000 to 240000 µg/mL | concentration at 40 min ([5]; human, saliva, topical or ocular, 50 mg tablet, 40 min): 30000 to 60000 µg/mL | concentration at 1 h ([5]; human, saliva, topical or ocular, 50 mg tablet, 60 min): 7500 to 15000 µg/mL | initial local concentration in saliva ([5]; tablet of 50 mg penicillin G potassium): about 480 mg/ml | local concentration in saliva in one hour ([5]; tablet of 50 mg penicillin G potassium, 60 min): 7.5 to 15 mg/mL
